Laboratory results published in patent US9156811B2 (priority 2008, dated 2015).
Read-outs that look alike come from different tables or passages of the source.

Key:
[1] = test system: Trypanosome (T. brucei brucei); assay: In-vitro antitrypanosomal efficacy assay (cell growth, resazurin); type: cell-based
[2] = molecular target: T. brucei N-myristoyl transferase (Trypanosoma brucei brucei (strain 927/4 GUTat10.1), UniProt Q388H8); assay: biochemical; type: biochemical
[3] = value with no enzyme tag in the cell, taken as T. brucei NMT, read-out: IC50 (μM) NMT Enzyme
[4] = value printed without enzyme tag in the NMT Enzyme column (taken as T. brucei NMT), read-out: IC50 (μM) NMT Enzyme
[5] = T. brucei brucei, blood stream form, variant 221
[6] = T. brucei NMT, value without parentheses, read-out: IC50 (μM) NMT Enzyme (T. brucei NMT)

Sequence of T. brucei N-myristoyl transferase (Q388H8 1-446): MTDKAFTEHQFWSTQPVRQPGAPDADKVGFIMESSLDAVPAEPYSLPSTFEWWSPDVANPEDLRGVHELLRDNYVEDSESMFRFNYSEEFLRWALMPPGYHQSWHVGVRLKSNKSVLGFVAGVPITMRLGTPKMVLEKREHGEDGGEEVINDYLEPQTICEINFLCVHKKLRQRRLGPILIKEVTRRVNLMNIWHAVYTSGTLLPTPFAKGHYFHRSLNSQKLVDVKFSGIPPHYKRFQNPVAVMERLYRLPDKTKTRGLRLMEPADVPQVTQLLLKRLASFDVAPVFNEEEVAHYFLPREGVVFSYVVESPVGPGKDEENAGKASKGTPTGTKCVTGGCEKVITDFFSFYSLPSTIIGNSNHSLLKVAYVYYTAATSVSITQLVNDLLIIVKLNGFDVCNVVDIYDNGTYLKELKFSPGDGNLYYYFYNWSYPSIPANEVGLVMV

IC50 [2, 3]	IC50 [2, 4]	IC50 [2, 6]	Structure (SMILES)	ED50 (μM) T. brucei ([1]; T. brucei cell growth)	ED50 (μM) T. brucei [1, 5]
–	12.8 µM	–	Cc1nn(C)c(C)c1N[S+](=O)([O-])c1ccc(NCc2ccc(Cl)c(Cl)c2)nc1 [DDD73325]	>1 µM	–
–	0.63 µM	–	Cc1nn(C)c(C)c1N[S+](=O)([O-])c1ccc(CNC(=O)c2ccccc2)s1 [DDD73238]	6.9 µM	–
47.7 µM	–	–	Cc1nn(C)c(C)c1N[S+](=O)([O-])c1ccc(COCCCN2CCN(C)CC2)cc1 [DDD85648]	>1 µM	–
–	1.1 µM	–	Cc1nn(C)c(C)c1N[S+](=O)([O-])c1c(Cl)cc(-c2cccc(C(N)=O)c2)cc1Cl [DDD73279]	2.1 µM	–
–	42 µM	–	COc1cc([S+](=O)([O-])Nc2c(C)nn(C)c2C)ccc1NC(C)=O [DDD71623]	>1 µM	–
1 µM	–	–	CC(=O)c1cccc(Nc2ccc([S+](=O)([O-])Nc3c(C)nn(C)c3C)cn2)c1 [DDD86311]	>1 µM	–
–	8 µM	–	Cc1nn(C)c(C)c1N[S+](=O)([O-])c1ccc(N2CCc3ccccc32)nc1 [DDD85597]	>1 µM	–
–	42 µM	–	CC(=O)c1ccc([S+](=O)([O-])Nc2c(C)nn(C)c2C)cc1 [DDD71232]	>1 µM	–
–	8.8 µM	–	CC(=O)N1CCc2cc([S+](=O)([O-])Nc3c(C)nn(C)c3C)ccc21 [DDD71237]	>1 µM	–
1 µM	–	–	Cc1nn(C)c(C)c1N[S+](=O)([O-])c1ccc(NCCN2CCN(C(=O)OC(C)(C)C)CC2)nc1 [DDD86310]	>1 µM	–
–	5.7 µM	–	COc1ccc(NCc2ccc([S+](=O)([O-])Nc3c(C)nn(C)c3C)cc2)cc1 [DDD73513]	>1 µM	–
–	38.7 µM	–	Cc1nn(C)c(C)c1N[S+](=O)([O-])c1ccc(NCCN2CCOCC2)nc1 [DDD73239]	>50 µM	–
–	6.4 µM	–	Cc1nn(C)c(C)c1N[S+](=O)([O-])c1cc(Cl)sc1Cl [DDD61495]	>1 µM	–
–	4.3 µM	–	CCC(C)c1ccc([S+](=O)([O-])Nc2c(C)nn(C)c2C)cc1 (centres unmarked) [DDD71242]	>1 µM	–
–	41.7 µM	–	Cc1nn(C)c(C)c1N[S+](=O)([O-])c1ccc(CN2CCCc3ccccc32)cc1 [DDD85596]	>1 µM	–
–	3.3 µM	–	COc1ccc(SCc2ccc([S+](=O)([O-])Nc3c(C)nn(C)c3C)cc2)cc1OC [DDD85604]	>1 µM	–
1 µM	–	–	Cc1nn(C)c(C)c1N[S+](=O)([O-])c1ccc(NCCO)nc1 [DDD86293]	>1 µM	–
–	2.6 µM	–	COc1ccc([S+](=O)([O-])Nc2c(C)nn(C)c2C)cc1Br [DDD71233]	>1 µM	–
–	32 µM	–	Cc1nn(C)c(C)c1N[S+](=O)([O-])c1ccc(-c2cc(C(F)(F)F)n(C)n2)s1 [DDD73242]	>1 µM	–
–	4 µM	–	Cc1nn(C)c(C)c1N[S+](=O)([O-])c1ccc2c(c1)OCCO2 [DDD16771]	>1 µM	–
0.11 µM	–	–	Cc1nn(C)c(C)c1N[S+](=O)([O-])c1ccc(N2CCC(N3CCNCC3)C2)nc1 (centres unmarked) [DDD88008]	18.0 µM	–
–	2.7 µM	–	Cc1nn(C)c(C)c1N[S+](=O)([O-])c1ccc(OC(F)(F)F)cc1 [DDD71234]	>1 µM	–
–	17.4 µM	–	Cc1nn(C)c(C)c1N[S+](=O)([O-])c1ccc(Cl)c(C(F)(F)F)c1 [DDD71252]	>1 µM	–
–	4.2 µM	–	Cc1nn(C)c(C)c1N[S+](=O)([O-])c1ccc([S+](C)(=O)[O-])cc1 [DDD73241]	>1 µM	–

The remaining lines, values behind:

Structure (SMILES)	IC50 [2, 3]	IC50 [2, 4]	IC50 [2, 6]	ED50 (μM) T. brucei ([1]; T. brucei cell growth)	ED50 (μM) T. brucei [1, 5]
Cc1c(N[S+](=O)([O-])c2ccc(CCCN3CCN(C)CC3)cc2)c(CC(C)C)nn1C [DDD90147]	0.034 µM	–	–	0.20 µM	–
CCN(CC)Cc1cccc(-c2ccc([S+](=O)([O-])Nc3c(CC(C)C)nn(C)c3C)c(Cl)c2)c1 [DDD99763]	0.007 µM	–	–	0.053 µM	–
COc1cc(C)c([S+](=O)([O-])Nc2c(C)nn(CCc3ccccc3)c2C)c(C)c1C [DDD73496]	–	> 100 µM	–	>1 µM	–
Cc1nn(C)c(C)c1N[S+](=O)([O-])c1ccc(Nc2ccc(Oc3ccccc3)cc2)nc1 [DDD73483]	–	> 100 µM	–	>1 µM	–
Cc1nn(C)c(C)c1N[S+](=O)([O-])c1ccc(COCc2ccc3ccccc3c2)cc1 [DDD73511]	–	> 100 µM	–	>1 µM	–
COc1cc(C)c([S+](=O)([O-])Nc2cc[nH]n2)c(C)c1C [DDD71630]	–	> 100 µM	–	>1 µM	–
Cc1nn(C)c(C)c1N[S+](=O)([O-])c1ccc(COc2ccc3cc[nH]c3c2)cc1 [DDD73507]	–	4.5 µM	–	>1 µM	–
Cc1nn(C)c(C)c1N[S+](=O)([O-])c1ccc(CNc2ccc(Oc3ccccc3)cc2)cc1 [DDD73502]	–	4.8 µM	–	>1 µM	–
COc1cc(C)c([S+](=O)([O-])Nc2cccnc2C)c(C)c1C [DDD71279]	–	10 µM	–	>1 µM	–
CCCn1nc(C)c(N[S+](=O)([O-])c2c(C)cc(OC)c(C)c2C)c1C [DDD73491]	–	28.4 µM	–	>1 µM	–
Cc1nn(C)c(C)c1N[S+](=O)([O-])c1ccc(NCc2nc3ccccc3s2)nc1 [DDD73477]	–	0.46 µM	–	6.0 µM	–
COCCNCc1cccc(-c2ccc([S+](=O)([O-])Nc3c(CC(C)C)nn(C)c3C)cc2)c1 [DDD100797]	–	–	0.023 µM	–	0.492 µM
Cc1nn(C)c(C)c1N[S+](=O)([O-])c1cc(F)c(CCCN2CCN(C)CC2)cc1F [DDD90059]	0.054 µM	–	–	0.48 µM	–
COc1cc(OC)cc(-c2cc(Cl)c([S+](=O)([O-])Nc3c(C)nn(C)c3C)c(Cl)c2)c1 [DDD73321]	–	4.3 µM	–	>1 µM	–
Cc1nn(C)c(C)c1N[S+](=O)([O-])c1ccc(NCc2ccn(C)n2)nc1 [DDD73487]	–	1.2 µM	–	14.2 µM	–
Cc1nn(C)c(C)c1N[S+](=O)([O-])c1c(Cl)cc(C#CC2CCCCC2)cc1Cl [DDD73479]	–	> 100 µM	–	>1 µM	–
Cc1nn(C)c(C)c1N[S+](=O)([O-])c1ccc(N[C@H](C)c2ccc3ccccc3c2)nc1 [DDD73486]	–	2.8 µM	–	>1 µM	–
Cc1nn(C)c(C)c1N[S+](=O)([O-])c1c(Cl)cc(-c2cccc(C(F)(F)F)c2)cc1Cl [DDD73277]	–	40 µM	–	>1 µM	–
COc1cc(C)c([S+](=O)([O-])Nc2ccncc2)c(C)c1C [DDD71280]	–	> 100 µM	–	>1 µM	–

Structure (SMILES)	IC50 [2, 3]	IC50 [2, 4]	IC50 [2, 6]	ED50 (μM) T. brucei ([1]; T. brucei cell growth)	ED50 (μM) T. brucei [1, 5]
Cc1nn(C)c(C)c1N[S+](=O)([O-])c1c(Cl)cc(C#Cc2ccccc2)cc1Cl [DDD73485]	–	34.3 µM	–	>1 µM	–
Cc1c(N[S+](=O)([O-])c2ccc(CCCOC3CCN(C)CC3)cc2)c(CC(C)C)nn1C [DDD100168]	–	–	0.009 µM	–	0.110 µM
Cc1ncccc1N[S+](=O)([O-])c1ccc(NCc2ccc3[nH]ccc3c2)nc1 [DDD85611]	–	7.2 µM	–	>1 µM	–
CCc1ccc(-c2cc(Cl)c([S+](=O)([O-])Nc3c(C)nn(C)c3C)c(Cl)c2)cc1 [DDD73267]	–	44.5 µM	–	>1 µM	–
Cc1nn(C)c(C)c1N(CCO)[S+](=O)([O-])c1c(Cl)cc(Br)cc1Cl [DDD85607]	–	1.1 µM	–	7.1 µM	–
Cc1nn(C)c(C)c1N[S+](=O)([O-])c1c(C)c(C)c(C)c(C)c1C [DDD71248]	–	62.5 µM	–	>1 µM	–
Cc1c(N[S+](=O)([O-])c2ccc(-c3cccc(CN4CCN(C)CC4)c3)cc2)c(CC(C)C)nn1C [DDD99736]	0.068 µM	–	–	0.41 µM	–
Cc1cc([S+](=O)([O-])Nc2c(CC(C)C)nn(C)c2C)ccc1-c1cccc(CN(C)C)c1 [DDD99819]	0.008 µM	–	–	0.043 µM	–
COc1cc(C)c([S+](=O)([O-])NCc2c(C)nn(C)c2C)c(C)c1C [DDD71296]	–	> 100 µM	–	>1 µM	–
COc1cc(C)c([S+](=O)([O-])Nc2c(C)nn(C(C)C)c2C)c(C)c1C [DDD73497]	–	> 100 µM	–	>1 µM	–
Cc1c(N[S+](=O)([O-])c2ccc(CCCCC3CCNCC3)cc2)c(CC(C)C)nn1C [DDD100158]	–	–	0.006 µM	–	0.048 µM
Cc1nn(C)c(C)c1NS(=O)(=O)c1c(Cl)cc(-c2ccnc(N3CCC(N(C)C)C3)c2)cc1Cl (centres unmarked) [DDD86292, 2,6-Dichloro-4-[2-(3-dimethylamino-pyrrolidin-1-yl)-pyridin-4-yl]-N-(1,3,5-trimethyl-1 H-pyrazol-4-yl)-benzenesulfonamide]	1 µM	–	–	>1 µM	–
Cc1nn(C)c(C)c1N[S+](=O)([O-])c1c(Cl)cc(-c2cc3ccccc3o2)cc1Cl [DDD73280]	–	20.7 µM	–	>1 µM	–
Cc1nn(C)c(C)c1N[S+](=O)([O-])c1cc([S+](=O)([O-])c2ccccc2)cs1 [DDD73237]	–	10.4 µM	–	>1 µM	–
Cc1nn(C)c(C)c1N[S+](=O)([O-])c1ccc(NCC(c2ccccc2)c2ccccc2)nc1 [DDD73492]	–	13.6 µM	–	>1 µM	–
Cc1nn(C)c(C)c1N[S+](=O)([O-])c1ccc(NC(CO)c2ccccc2)nc1 (centres unmarked) [DDD73333]	–	> 100 µM	–	>1 µM	–
Cc1nn(C)c(C)c1N[S+](=O)([O-])c1ccc(NCCN2CCN(C)CC2c2ccccc2)nc1 (centres unmarked) [DDD86304]	1 µM	–	–	>1 µM	–
COc1cc(C)c([S+](=O)([O-])n2ccc(N)n2)c(C)c1C [DDD71644]	–	> 100 µM	–	>1 µM	–
